According to US20250269043A1, “TARGETED BIFUNCTIONAL DEGRADERS” (YALE UNIVERSITY, priority 2019, published 2025):

Columns and labels:
HepG2 cells [1] = assay: DNP-GN3-mediated endocytosis of fluorescently labeled α-DNP antibody by adherent HepG2 cells; assay type: cell-based, human; settings: sodium azide and 2-deoxyglucose as combined treatment; FIG. 89
Procedure: It was next explored whether DNP-GN3 mediates the endocytosis of fluorescently labeled α-DNP antibody.
To explore the cellular mechanism of antibody uptake, cells were treated with chemical inhibitors of several endocytic pathways (FIG. 89).

HepG2 cells [2] = assay: DNP-AF3-mediated α-DNP antibody endocytosis by HepG2 cells (flow cytometry); assay type: cell-based, human; settings: 40 nM DNP-AF3, 100 nM antibody; for effect of endocytic pathway inhibitors on DNP-AF3-mediated α-DNP antibody endocytosis: FIG. 106; for effect of competitive binders on DNP-AF3-mediated α-DNP antibody endocytosis: ASF 2.07 μM, AF and GalNAc 1.25 mM, FIG. 105
Procedure: The intracellular fluorescence of cells that were incubated at 37° C. with both fluorescently labeled α-DNP antibody and DNP-AF3 for a given amount of time was examined. Cells were then washed, removed from the plate with trypsin, and subjected to flow cytometry.
It was then determined if reagents which inhibit ternary complex formation inhibit endocytosis mediated by DNP-AF3.
Next, whether inhibitors of specific endocytic pathways inhibited α-DNP antibody endocytosis was determined (FIG. 106).

HepG2 cells [3] = assay: MIF-GN3-mediated endocytosis of Alexa 488-labeled human MIF by HepG2 cells; settings: for effect of endocytic pathway inhibitors on MIF-GN3-mediated MIF endocytosis: MIF 100 nM, MIF-GN3 200 nM, FIG. 132; for toxicity of endocytosis inhibitors to cells: HepG2 cells in the presence of MIF and MIF-GN3
Procedure: Human MIF protein was fluorescently labeled with Alexa 488 NHS ester, then incubated with HepG2 cells in the presence of varying levels of MIF-GN3.
The ability of MIF-GN3 to mediate MIF endocytosis over a wide range of target protein concentrations was assessed.
Next, inhibitors of various endocytic pathways were utilized to determine if MIF-GN3 mediates MIF endocytosis in a manner consistent with ASGPR (FIG. 132).

human MIF [4] = target: T1, human MIF (Homo sapiens, UniProt P14174); assay: Depletion of human MIF from cell culture supernatant (sandwich ELISA); assay type: cell-based; settings: 24 hours; FIG. 128B
T1 sequence (P14174 2-115 limits assumed): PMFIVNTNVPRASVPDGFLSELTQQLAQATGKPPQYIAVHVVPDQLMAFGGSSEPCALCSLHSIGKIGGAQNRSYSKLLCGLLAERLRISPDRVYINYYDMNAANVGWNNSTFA
Procedure: The ability of bifunctional MIF-binding molecules to mediate the depletion of human MIF from cell culture was investigated. In these assays, human MIF was present at a concentration of 100 nM, and a sandwich ELISA assay was utilized to measure the concentration of human MIF remaining in the cell culture supernatant. The closely related bifunctional molecules MIF-GN3, MIF-PEG2-GN3, and MIF-PEG4-GN3 were used, as well as the structurally dissimilar molecule MIF-NVS-PEG3-GN3. […] Based on the ease of its synthesis and its efficacy in this experiment, MIF-GN3 was utilized for further studies. It was next investigated whether the MIF inhibitor 3w mediates MIF depletion from cell culture supernatant. […] When cells were treated with 3w, no depletion of exogenous MIF protein was observed after 24 hours (FIG. 128B).
Bifunctional molecules containing optimized ASGPR-binding motifs are also capable of mediating MIF depletion from cell culture supernatant (FIG. 129). The MIF-binding molecule MIF-AF1, which contains only a single ASGPR-binding sugar, was not effective at mediating depletion of MIF from supernatant at any concentration tested. It is hypothesized that this is due to the compound's low predicted affinity for ASGPR (μM range). […] At a concentration of either 200 nM or 1 μM, MIF-AF2 mediated nearly 100%/o depletion of MLF from the cell culture supernatant after 48 hours. […] In contrast to these molecules, which utilize optimized synthetic ASGPR ligands, the GalNAc-based molecule MIF-GN3 mediated only 67.0% and 56.0% removal of MIF from supernatant after 48 hours at concentrations of 1 μM and 200 nM, respectively. […] At a concentration of 40 nM (4.0 pmol of molecule), MIF-AF3 mediates the removal of 83.2% of MIF present in the cell culture supernatant, or 8.32 pmol of human MIF protein. Therefore, it was concluded that under the conditions of this experiment, MIF-AF3 mediates the depletion of 2.08 molar equivalents of MIF protein.

PC3 cells = assay: PC3 human prostate cancer cell tumor model in mice; assay type: in vivo; settings: MIF-GN3 at 10 mpk; control arms DNP-GN3 and 3w; FIG. 138
Procedure: The ability of MIF-GN3 to mediate the depletion of MIF in a therapeutically relevant disease model was investigated. […] An experiment was conducted to determine whether the bifunctional molecule MIF-GN3 can deplete sufficient human MIF from serum to slow PC3 tumor growth. Mice were injected with an aliquot of PC3 cells, and the size of the resultant tumors as well as the levels of human MIF in serum were monitored over five weeks. […] Five weeks after the initial PC3 cell injection, the first of the mice reached maximal tumor size ([…]) and was sacrificed (FIG. 138). […] The decrease in human MIF levels mediated by MIF-GN3 is consistent with a mechanism of action in which MIF-GN3 mediates the depletion and degradation of circulating MIF protein. While the α-MIF antibody would not necessarily be expected to decrease the levels of human MIF, it is possible that the antibody mediates MIF neutralization in a manner which masks its signal as determined by ELISA. Alternatively, the α-MIF antibody may mediate depletion or degradation of huMIF by some endocytic mechanism. Another possible explanation is that the α-MIF antibody decrease serum levels of active human MIF to such an extent at early time points that PC3 cells proliferate much more slowly, and therefore fewer cells are actively secreting human MIF.
Mice were sacrificed when their tumor volumes reached 1000 mm^3. […] At this same time point, less than 25% of the mice in any other arm had survived.

human MIF [5] = target: T1, human MIF; assay: Depletion of injected recombinant human MIF from serum in mice; assay type: in vivo; design: injected into mice; settings: control molecules injected along with human MIF; FIG. 136
Procedure: In vivo human MIF depletion experiments were undertaken to determine whether MIF-GN3 can mediate the depletion of injected recombinant human MIF from serum in mice. Mice were injected with five μg of the human MIF protein. In this experiment, one group of mice was also injected with a single 10 mpk dose of MLF-GN3 along with human MIF protein. It was observed that after four hours, the average level of human MIF in serum in the PBS-treated mice was 1.76 ng/mL (FIG. 134). In mice treated with 10 mpk MIF-GN3, however, the concentration of human MIF in serum was 0.68 ng/mL. One day after the initial injection, human MIF levels had reached background levels for both conditions. […] It was hypothesized that, due to the short half-life of human MIF in serum, investigating human MIF levels at earlier time points may be more informative.
Next, an experiment was performed to determine whether MIF-GN3 could enhance MIF clearance at time points earlier than four hours. Mice were coinjected with recombinant human MIF and 10 mpk MIF-GN3 via either i.p. or i.v. routes. For the PBS control arms, human MIF was injected with PBS. It was observed that in the absence of MIF-GN3, there was a spike in huMIF levels in circulation after 30 minutes (FIG. 135). In the presence of MIF-GN3, however, levels of MIF protein remained low at 30 minutes and no spike in its concentration was observed. By two hours, the levels of human MIF in circulation decreased to background levels.
In a further experiment, whether an inhibitor of the MIF protein (3w) is able to mediate the protein's depletion from serum was determined. A bifunctional molecule that mediates the depletion of α-DNP antibody from serum was also assayed as a negative control. Neither of these molecules was expected to mediate the formation of a ternary complex between human MIF protein and ASGPR.

α-DNP antibody = assay: In vivo depletion of α-DNP antibody from serum in mice (ELISA); settings: FIG. 95
Procedure: FIG. 94 illustrates that serum levels of α-DNP antibody decrease more rapidly following repeated treatment with DNP-GN3. Serum antibody levels were measured using an ELISA assay. Each experimental group contained three mice. Statistical differences in experiments involving in vivo depletion of α-DNP antibody were assessed by repeated measures two-way ANOVA with Tukey's tests for post-hoc comparison of simple effects between each of the treatment groups and PBS.
Single doses of DNP-GN3 were also found to be efficacious at mediating α-DNP antibody depletion, albeit less effectively than daily dosing (FIG. 96). […] Therefore, it was concluded that DNP-GN3 is able to mediate the depletion of a monoclonal antibody from serum, and functions across a wide range of target protein concentrations and dosing regimens.
DNP-GN3 was also found to be efficacious in depleting polyclonal α-DNP antibody from serum collected from mice immunized with DNP-keyhole limpet haemocyanin (KLH) (FIG. 97). […] Thus, the small molecule DNP-GN3 is not restricted in function to only monoclonal mouse antibodies, but is also effective at removing polyclonal α-DNP antibodies from circulation in mice.

[6] = target: human IgG (Alexa 488-labeled) (human); assay: cell-based or functional assay

Compound	effect of endocytic pathway inhibitors on intracellular fluorescence (DNP-GN3-mediated uptake) (HepG2 cells [1])	effect of endocytic pathway inhibitors on DNP-AF3-mediated α-DNP antibody endocytosis (HepG2 cells [2])	effect of endocytic pathway inhibitors on MIF-GN3-mediated MIF endocytosis (HepG2 cells [3])	further results
O=CC[C@@H](O)[C@H](O)[C@H](O)CO [2-deoxyglucose]	significantly decreased	significant decrease	decreased significantly	–
Oc1ccc(-n2cc(-c3ccc4cc(OCCOCCN5CCOCC5)ccc4n3)nn2)cc1F [Compound 3w]	–	–	–	depletion of exogenous MIF protein from cell culture supernatant (human MIF [4]): no depletion; tumor growth (PC3 cells): not found to decrease tumor growth; human MIF concentration in serum compared to the PBS control (human MIF [5]): no significant decreases
C=C1[C@@H](C)[C@H]2[C@H](Cc3ccccc3)NC(=O)[C@]23[C@H](OC(C)=O)/C=C/[C@@](C)(O)C(=O)[C@@H](C)C/C=C/[C@H]3[C@@H]1O [CytD]	–	non-significant decrease	–	–
O=C(CCOCC(COCCC(=O)NCCOCCOCCO)(COCCC(=O)NCCOCCOCCO)NC(=O)CNC(=O)COCCOCCOCCNc1ccc([N+](=O)[O-])cc1[N+](=O)[O-])NCCOCCOCCO [DNP-OH3]	–	–	–	antibody depletion from serum after negative control compound (α-DNP antibody): No accelerated antibody depletion; effect of competitive binders on DNP-AF3-mediated α-DNP antibody endocytosis (HepG2 cells [2]): decreased to near-background levels
CC(=O)N[C@H]1C(O)O[C@H](CO)[C@H](O)[C@@H]1O (stereo partly shown) [GalNAc, N-acetylgalactosamine]	–	–	–	effect of competitive binders on DNP-AF3-mediated α-DNP antibody endocytosis (HepG2 cells [2]): significantly decreased
N=C(N)NC(=O)c1nc(Cl)c(N)nc1N [amiloride, Amiloride]	did not significantly decrease	decrease in cellular fluorescence	did not impact cellular fluorescence significantly	–
C=C1[C@@H](C)[C@H]2[C@H](Cc3ccccc3)NC(=O)[C@]23[C@H](OC(C)=O)/C=C/[C@@](C)(O)C(=O)[C@@H](C)C/C=C/[C@H]3[C@@H]1O [cytochalasin D]	did not significantly decrease	–	–	toxicity of endocytosis inhibitors to cells (HepG2 cells [3]): toxic
O=c1c(-c2ccc(O)cc2)coc2cc(O)cc(O)c12 [genistein, Genistein]	–	did not significantly decrease	–	toxicity of endocytosis inhibitors to cells (HepG2 cells [3]): toxic
COc1ccc2c(c1)c(CC(=O)O)c(C)n2C(=O)c1ccc(Cl)cc1 [indomethacin, Indomethacin]	–	did not significantly decrease	did not decrease	–
CC[C@@]1([C@@H]2O[C@@H]([C@H]3O[C@@](O)(CO)[C@H](C)C[C@@H]3C)C[C@@H]2C)CC[C@H]([C@]2(C)CC[C@]3(C[C@H](O)[C@@H](C)[C@@H]([C@@H](C)[C@@H](OC)[C@H](C)C(=O)O)O3)O2)O1 [monensin, Monensin]	significantly decreased	–	near background levels	–
C[C@@H]1[C@H](O)[C@@H](C)/C=C/C=C/CC/C=C/C=C/C=C/C=C/C(O[C@H]2O[C@H](C)[C@@H](O)[C@H](N)[C@@H]2O)CC2O[C@](O)(CC(O)C(O)CCC(O)CC(O)CC(O)CC(=O)O[C@H]1C)CC(O)C2C(=O)O (stereo partly shown) [nystatin, Nystatin]	did not significantly decrease	did not significantly decrease	did not decrease	–
OC[C@H]1O[C@@](CO)(O[C@H]2O[C@H](CO)[C@@H](O)[C@H](O)[C@H]2O)[C@@H](O)[C@@H]1O [sucrose]	significantly decreased	–	near background levels	–
FcIII-BCN-GN3 (peptide)	–	–	–	uptake of human IgG by HepG2 cells; most effective concentration of FcIII-BCN-GN3 [6]: 1 µM
FcIII-GN3 (oxidized cyclized form) (peptide)	–	–	–	uptake of Alexa 488-labeled human IgG by HepG2 cells; concentration of FcIII-GN3 giving maximal uptake [6]: 200 nM
